Blank lines part the entries; values can stand above or below the compound they belong to.
What was measured:
[1] = biological target: T1, human recombinant TDO2 enzyme (Homo sapiens, UniProt P48775); assay: Assay for TDO2 enzymatic activity determination; type: biochemical; settings: human recombinant TDO2, L-Trp 1 mM, room temperature one hour, kynurenine absorbance at 480 nm
T1 construct: made in house
Description: To measure the TDO2 activity, the reaction mixture contained (final concentrations) potassium phosphate buffer (50 mM, pH 7.5), ascorbic acid (0.25 M), methylene blue (0.125 μM), catalase (40 units/mL, from bovine liver, Sigma), and human recombinant TDO2 enzyme (prepared as described in Dolusic et al. J. Med. Chem.; 2011, 54, 5320-5334; 0.9 μg) without or with the compounds of the present invention embodiments at the indicated concentrations (total volume 112.5 μL). The reaction was initiated by the addition of 37.5 μL of L-Trp (final concentration 1 mM) at room temperature. The reaction was conducted at room temperature during one hour and stopped by the addition of 30 μL of 30% (w/v) trichloroacetic acid.
To convert N-formylkynurenine into kynurenine, the reaction mixture was incubated at 65° C. for 30 min. Then 150 μL of the reaction mixture was mixed with 120 μL, of 2.5% (w/v) 4-(dimethylamino)-benzaldehyde in acetic acid and incubated for 5 min at room temperature. Kynurenine concentrations were determined by measuring the absorbance at 480 nm. A standard curve was made with pure kynurenine. The TDO activity was measured as described above using ten serial concentrations of certain embodiments of the compounds of the present invention. Data were fitted using the Prism software (GraphPad Software, Inc.).

[2] = biological target: T2, murine mastocytoma P815 cells overexpressing hTDO2 (Homo sapiens, UniProt P48775); assay: Cellular assay for TDO2 activity determination; type: cell-based; settings: P815 cells overexpressing hTDO2, overnight incubation at 37° C., kynurenine absorbance at 480 nm
T2 construct: expressed in transfected cells; host or cells: murine mastocytoma P815 cells
T2 sequence (P48775 whole entry): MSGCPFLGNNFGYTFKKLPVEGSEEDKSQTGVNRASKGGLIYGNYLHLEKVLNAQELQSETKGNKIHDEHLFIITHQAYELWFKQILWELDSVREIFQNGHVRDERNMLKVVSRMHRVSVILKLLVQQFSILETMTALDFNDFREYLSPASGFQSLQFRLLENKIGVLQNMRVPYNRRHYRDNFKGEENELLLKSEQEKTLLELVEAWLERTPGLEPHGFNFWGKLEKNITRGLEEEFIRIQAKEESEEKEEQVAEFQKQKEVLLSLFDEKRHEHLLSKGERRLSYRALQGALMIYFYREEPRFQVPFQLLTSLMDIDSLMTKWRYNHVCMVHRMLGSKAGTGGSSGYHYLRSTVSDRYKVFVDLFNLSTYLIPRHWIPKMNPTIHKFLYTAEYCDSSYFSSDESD
Description: The assay was performed in 96-well flat bottom plates seeded with murine mastocytoma P815 cells overexpressing hTDO2 (prepared as described in Pilotte et al., PNAS, 2012, 109(7), 2497-2502), at a concentration of 5×10^4 cells/well in a final volume of 200 μL. To determine TDO or IDO activity, the cells were incubated overnight at 37° C. at 5% CO2 in IMDM (Invitrogen) supplemented with 2% FBS and 2% penicillin/streptomycin in the presence of the compounds of the present invention, at different concentrations.
The plates were then centrifuged 5 min at 1000 rpm, and 100 μL of the supernatant were collected in a conical plate, 30 uL of TCA 30% were added and a further centrifugated at 3000×g for 10 minutes. 100 μL of the supernatant were collected in a flat bottomed plate and 100 μL of 2% (w/v) 4-(dimethylamino)-benzaldehyde in acetic acid and incubated for 5 min at room temperature. Kynurenine concentrations were determined by measuring the absorbance at 480 nm. A standard curve was made with pure kynurenine. The TDO activity was measured as described above using ten serial concentrations of the compounds of the present invention. Data were fitted using the Prism software (GraphPad Software, Inc.).

T1 sequence (P48775 whole entry): as above

SMILES: Cc1c(-c2c[nH]c3cc(F)ccc23)cnn1C (single isomer, unassigned) [Example 74, 3-(1,5-dimethyl-1H-pyrazol-4-yl)-6-fluoro-1H-indole]
- IC50 [1]: 1 to 10 µM
- IC50 [2]: < 1 µM

SMILES: Fc1ccc2c(-c3cnn(C4CNC4)c3)c[nH]c2c1 [Example 2, 3-(1-(azetidin-3-yl)-1H-pyrazol-4-yl)-6-fluoro-1H-indole]
- IC50 [1]: < 1 µM
- IC50 [2]: < 1 µM

SMILES: CC(=O)N1CC(n2cc(-c3c[nH]c4cc(F)ccc34)cn2)C1 [Example 3, 1-(3-(4-(6-fluoro-1H-indol-3-yl)-1H-pyrazol-1-yl)azetidin-1-yl)ethanone]
- IC50 [1]: 1 to 10 µM

SMILES: CNC(=O)N1CC(n2cc(-c3c[nH]c4cc(F)ccc34)cn2)C1 [Example 5, 3-(4-(6-fluoro-1H-indol-3-yl)-1H-pyrazol-1-yl)-N-methylazetidine-1-carboxamide]
- IC50 [1]: 1 to 10 µM

SMILES: Fc1ccc2c(-c3cnn(CC4CNC4)c3)c[nH]c2c1 [Example 6, 3-(1-(azetidin-3-ylmethyl)-1H-pyrazol-4-yl)-6-fluoro-1H-indole]
- IC50 [1]: < 1 µM
- IC50 [2]: < 1 µM

SMILES: CN(C)CCNC(=O)CCn1cc(-c2c[nH]c3cc(F)ccc23)cn1 [Example 13, N-(2-(dimethylamino)ethyl)-3-(4-(6-fluoro-1H-indol-3-yl)-1H-pyrazol-1-yl)propanamide]
- IC50 [1]: 1 to 10 µM

SMILES: CNC(=O)CCn1cc(-c2c[nH]c3cc(F)ccc23)cn1 [Example 14, 3-(4-(6-fluoro-1H-indol-3-yl)-1H-pyrazol-1-yl)-N-methylpropanamide]
- IC50 [1]: 1 to 10 µM

SMILES: CN(C)C(=O)CCn1cc(-c2c[nH]c3cc(F)ccc23)cn1 [Example 15, 3-(4-(6-fluoro-1H-indol-3-yl)-1H-pyrazol-1-yl)-N,N-dimethylpropanamide]
- IC50 [1]: 1 to 10 µM

SMILES: CN1CCN(CCn2cc(-c3c[nH]c4cc(F)ccc34)cn2)CC1 [Example 19, 6-fluoro-3-(1-(2-(4-methylpiperazin-1-yl)ethyl)-1H-pyrazol-4-yl)-1H-indole]
- IC50 [1]: 1 to 10 µM
- IC50 [2]: < 1 µM

SMILES: Fc1ccc2c(-c3cnn(CCN4CCOCC4)c3)c[nH]c2c1 [Example 20, 4-(2-(4-(6-fluoro-1H-indol-3-yl)-1H-pyrazol-1-yl)ethyl)morpholine]
- IC50 [1]: 1 to 10 µM
- IC50 [2]: 1 to 10 µM

SMILES: CS(=O)(=O)NCCn1cc(-c2c[nH]c3cc(F)ccc23)cn1 [Example 25, N-(2-(4-(6-fluoro-1H-indol-3-yl)-1H-pyrazol-1-yl)ethyl)methanesulfonamide]
- IC50 [1]: 1 to 10 µM
- IC50 [2]: < 1 µM

SMILES: OCCn1cc(-c2c[nH]c3cc(F)ccc23)cn1 [Example 26, 2-(4-(6-fluoro-1H-indol-3-yl)-1H-pyrazol-1-yl)ethanol]
- IC50 [1]: < 1 µM
- IC50 [2]: < 1 µM

SMILES: CC(=O)N1CCN(CCn2cc(-c3c[nH]c4cc(F)ccc34)cn2)CC1 [Example 28, 1-(4-(2-(4-(6-fluoro-1H-indol-3-yl)-1H-pyrazol-1-yl)ethyl)piperazin-1-yl)ethanone]
- IC50 [1]: 10 to 100 µM

SMILES: O=C1CCCN1CCn1cc(-c2c[nH]c3cc(F)ccc23)cn1 [Example 30, 1-(2-(4-(6-fluoro-1H-indol-3-yl)-1H-pyrazol-1-yl)ethyl)pyrrolidin-2-one]
- IC50 [1]: 1 to 10 µM

SMILES: O=C(O)Cn1cc(-c2c[nH]c3cc(F)ccc23)cn1 [Example 41, 2-(4-(6-fluoro-1H-indol-3-yl)-1H-pyrazol-1-yl)acetic acid]
- IC50 [1]: 10 to 100 µM

SMILES: COC(=O)Cn1cc(-c2c[nH]c3cc(F)ccc23)cn1 [Example 42, methyl 2-(4-(6-fluoro-1H-indol-3-yl)-1H-pyrazol-1-yl)acetate]
- IC50 [1]: 1 to 10 µM

SMILES: O=C(O)CN1CCC(Cn2cc(-c3c[nH]c4cc(F)ccc34)cn2)CC1 [Example 49, 2-(4-((4-(6-fluoro-1H-indol-3-yl)-1H-pyrazol-1-yl)methyl)piperidin-1-yl)acetic acid]
- IC50 [1]: 1 to 10 µM

SMILES: CNC(=O)[C@H]1C[C@H](n2cc(-c3c[nH]c4cc(F)ccc34)cn2)C1 [Example 64, (1R,3R)-3-(4-(6-fluoro-1H-indol-3-yl)-1H-pyrazol-1-yl)-N-methylcyclobutanecarboxamide]
- IC50 [1]: 1 to 10 µM

SMILES: O=C(O)[C@H]1C[C@@H](n2cc(-c3c[nH]c4cc(F)ccc34)cn2)C1 [Example 65, (1S,3S)-3-(4-(6-fluoro-1H-indol-3-yl)-1H-pyrazol-1-yl)cyclobutanecarboxylic acid]
- IC50 [1]: 10 to 100 µM

SMILES: OCCN1CCC(n2cc(-c3c[nH]c4cc(F)ccc34)cn2)CC1 [Example 79, 2-(4-(4-(6-fluoro-1H-indol-3-yl)-1H-pyrazol-1-yl)piperidin-1-yl)ethanol]
- IC50 [1]: 1 to 10 µM

SMILES: COCCC(=O)N1CCC(n2cc(-c3c[nH]c4cc(F)ccc34)cn2)CC1 [Example 81, 1-(4-(4-(6-fluoro-1H-indol-3-yl)-1H-pyrazol-1-yl)piperidin-1-yl)-3-methoxypropan-1-one]
- IC50 [1]: 1 to 10 µM

SMILES: CCC(=O)N1CCC(n2cc(-c3c[nH]c4cc(F)ccc34)cn2)CC1 [Example 82, 1-(4-(4-(6-fluoro-1H-indol-3-yl)-1H-pyrazol-1-yl)piperidin-1-yl)propan-1-one]
- IC50 [1]: 1 to 10 µM

SMILES: Fc1ccc2c(-c3cnn(-c4ccc(Cl)nn4)c3)c[nH]c2c1 [Example 108, 3-(1-(6-chloropyridazin-3-yl)-1H-pyrazol-4-yl)-6-fluoro-1H-indole]
- IC50 [1]: 10 to 100 µM

The remaining lines, values ahead:

- IC50 [1]: 1 to 10 µM
- IC50 [2]: < 1 µM
SMILES: CC(Cn1cc(-c2c[nH]c3cc(F)ccc23)cn1)C(N)=O (single isomer, unassigned) [Example 36, 3-(4-(6-fluoro-1H-indol-3-yl)-1H-pyrazol-1-yl)-2-methylpropanamide]

- IC50 [1]: 1 to 10 µM
SMILES: NC(=O)N1CC(n2cc(-c3c[nH]c4cc(F)ccc34)cn2)C1 [Example 4, 3-(4-(6-fluoro-1H-indol-3-yl)-1H-pyrazol-1-yl)azetidine-1-carboxamide]

- IC50 [1]: 1 to 10 µM
SMILES: O=C(O)CCn1cc(-c2c[nH]c3cc(F)ccc23)cn1 [Example 16, 3-(4-(6-fluoro-1H-indol-3-yl)-1H-pyrazol-1-yl)propanoic acid]

- IC50 [1]: 10 to 100 µM
SMILES: O=C(O)CCn1cc(-c2c[nH]c3cc(F)c(F)cc23)cn1 [Example 17, 3-(4-(5,6-difluoro-1H-indol-3-yl)-1H-pyrazol-1-yl)propanoic acid]

- IC50 [1]: 1 to 10 µM
SMILES: O=C1NCCN1CCn1cc(-c2c[nH]c3cc(F)ccc23)cn1 [Example 18, 1-(2-(4-(6-fluoro-1H-indol-3-yl)-1H-pyrazol-1-yl)ethyl)imidazolidin-2-one]

- IC50 [1]: 1 to 10 µM
- IC50 [2]: 1 to 10 µM
SMILES: NC(=O)NCCn1cc(-c2c[nH]c3cc(F)ccc23)cn1 [Example 22, 1-(2-(4-(6-fluoro-1H-indol-3-yl)-1H-pyrazol-1-yl)ethyl)urea]

- IC50 [1]: 1 to 10 µM
SMILES: CNC(=O)NCCn1cc(-c2c[nH]c3cc(F)ccc23)cn1 [Example 23, 1-(2-(4-(6-fluoro-1H-indol-3-yl)-1H-pyrazol-1-yl)ethyl)-3-methylurea]

- IC50 [1]: 1 to 10 µM
- IC50 [2]: < 1 µM
SMILES: Fc1ccc2c(-c3cnn(CCN4CCNCC4)c3)c[nH]c2c1 [Example 27, 6-fluoro-3-(1-(2-(piperazin-1-yl)ethyl)-1H-pyrazol-4-yl)-1H-indole]

- IC50 [1]: 1 to 10 µM
SMILES: Fc1ccc2c(-c3cnn(CC4CCN(CC(F)(F)F)CC4)c3)c[nH]c2c1 [Example 45, 6-fluoro-3-(1-((1-(2,2,2-trifluoroethyl)piperidin-4-yl)methyl)-1H-pyrazol-4-yl)-1H-indole]

- IC50 [1]: 10 to 100 µM
SMILES: O=C(O)CCC(=O)N1CCC(Cn2cc(-c3c[nH]c4cc(F)ccc34)cn2)CC1 [Example 50, 4-(4-((4-(6-fluoro-1H-indol-3-yl)-1H-pyrazol-1-yl)methyl)piperidin-1-yl)-4-oxobutanoic acid]

- IC50 [1]: 1 to 10 µM
SMILES: CNC(=O)[C@H]1C[C@@H](n2cc(-c3c[nH]c4cc(F)ccc34)cn2)C1 [Example 63, (1S,3S)-3-(4-(6-fluoro-1H-indol-3-yl)-1H-pyrazol-1-yl)-N-methylcyclobutanecarboxamide]

- IC50 [1]: 10 to 100 µM
SMILES: O=C(O)[C@H]1C[C@H](n2cc(-c3c[nH]c4cc(F)ccc34)cn2)C1 [Example 66, (1R,3R)-3-(4-(6-fluoro-1H-indol-3-yl)-1H-pyrazol-1-yl)cyclobutanecarboxylic acid]

- IC50 [1]: 10 to 100 µM
SMILES: FC(F)(F)c1ccc2c(-c3cn[nH]c3)c[nH]c2c1 [Example 72, 3-(1H-pyrazol-4-yl)-6-(trifluoromethyl)-1H-indole]
